The assay concerns the target RABV NΔ23^0 (nucleoprotein aa 24-450) (Rabies virus, UniProt Q8JXF6). Type of assay: binding, rabies virus (strain CVS-11).

Here are results for 1 molecule from article PMC9786881 (Viruses, 2022).

For `CC[C@H](C)[C@H](NC(=O)[C@H](C)NC(=O)[C@H](CO)NC(=O)[C@@H]1CCCN1C(=O)[C@H](CC(N)=O)NC(=O)[C@@H](NC(=O)[C@H](Cc1ccccc1)NC(=O)[C@@H](NC(=O)[C@H](CCCCN)NC(=O)[C@H](CO)NC(=O)[C@H](CCSC)NC(=O)[C@H](CO)NC(=O)[C@H](C)NC(=O)CN)[C@@H](C)CC)C(C)C)C(=O)N[C@@H](CCCNC(=N)N)C(=O)N[C@@H](C)C(=O)NCC(=O)N[C@@H](CC(C)C)C(=O)N[C@@H](C)C(=O)N[C@@H](CC(=O)O)C(=O)N[C@@H](CC(C)C)C(=O)N[C@@H](CCC(=O)O)C(=O)N[C@@H](CCSC)C(=O)N[C@@H](C)C(=O)N[C@@H](CCC(=O)O)C(=O)N[C@@H](CCC(=O)O)C(=O)N[C@H](C(=O)N[C@H](C(=O)N[C@@H](CC(=O)O)C(=O)N[C@@H](CC(C)C)C(=O)N[C@H](C(=O)N[C@@H](CC(N)=O)C(=O)N[C@@H](CCCNC(=N)N)C(=O)N[C@@H](CC(N)=O)C(=O)N[C@H](C(=O)N[C@@H](CCC(=O)O)C(=O)N[C@@H](CC(=O)O)C(=O)N[C@@H](CC(N)=O)C(=O)N[C@@H](CCC(N)=O)C(=O)N[C@@H](C)C(=O)N[C@@H](Cc1c[nH]cn1)C(=O)N[C@@H](CC(C)C)C(=O)N[C@@H](CCC(N)=O)C(=O)N[C@@H](CSC1CC(=O)N(CCNC(=O)c2ccc3c(c2)C(=O)OC32c3ccc(O)cc3Oc3cc(O)ccc32)C1=O)C(=O)N[C@@H](CCC(=O)O)C(=O)O)[C@@H](C)CC)[C@@H](C)CC)C(C)C)[C@@H](C)O` (stereo partly shown) [P42-G41C*], the “half time of dissociation” value was found to be 256 min.
